From patent US11702422B2, “Imidazopyridazines as modulators of IL-17” (Janssen Pharmaceutica NV, priority 2020, dated 2023) come the findings set out here.

Molecules are shown by their SMILES. Where only a bound is given, the exact number is not on record here.

Test [1] deals with IL-17A(FLAG-Tagged): IL-17RA(His-Tagged) (Homo sapiens, UniProt Q16552, K93Q). Kind of test: IL-17A(FLAG-Tagged): IL-17RA(His-Tagged) Binding Disruption Eu-HTRF Assay. Particulars: IL-17A/IL-17RA binding disruption, simple average if tested more than once. An outline of the steps:
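IC50 comes from a one-site competition fit of the HTRF 665/620 nm ratio. Compound dilutions (2-fold, 22 points) were held 1 h rt with FLAG-tagged IL-17A dimer, then His-tagged IL-17RA plus Eu-cryptate anti-FLAG and D2 anti-His antibodies were added for 2 h rt.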
(TR-FRET usually uses a lanthanide donor and a delayed reading to cut background.)

Test [2] has as its system IL-17A-induced G-CSF production in human normal keratinocyte (NHK). The test is described as follows: NHK Assay: IL-17A-induced G-CSF production in human normal keratinocytes. Particulars: 24 h, adult normal human keratinocytes, IL-17A 5 ng/mL, simple average if tested more than once. It is filed as cell-based. An outline of the steps: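 G-CSF released by primary adult human keratinocytes after 24 h at 37° C was quantified by HTRF via standard curve to give IC50. Stimulus was 5 ng/mL IL-17A pre-mixed 1 h at rt with compound dilutions, in 5% FBS and 0.2% DMSO. Cell viability was assessed in parallel with CellTiter-Glo.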

UniProt Q16552, sequence (Q16552 with tags, fused parts or gaps K93Q): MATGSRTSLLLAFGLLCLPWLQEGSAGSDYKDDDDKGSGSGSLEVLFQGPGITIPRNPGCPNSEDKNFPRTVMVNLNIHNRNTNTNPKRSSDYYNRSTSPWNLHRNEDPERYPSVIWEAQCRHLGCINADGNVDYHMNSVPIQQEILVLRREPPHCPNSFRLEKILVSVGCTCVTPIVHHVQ

As usually defined, the IC50 is the midpoint of a concentration-inhibition curve. With `CC(C)n1nccc1C(=O)N[C@H](c1cn2ncc([C@H](NC(=O)CC(C)C(F)(F)F)C3CC3)cc2n1)C1CCC(F)(F)CC1` (single isomer, unassigned) [Example 121, N—((S)-(7-((R)-Cyclopropyl((R*)-4,4,4-trifluoro-3-methylbutanamido)methyl)imidazo[1,2-b]pyridazin-2-yl)(4,4-difluorocyclohexyl)methyl)-1-isopropyl-1H-pyrazole-5-carboxamide], the IC50 came out at 0.088 µM in test [1] and 0.11 µM in test [2] (Homo sapiens, Keratinocyte).

With `CC(C)n1nccc1C(=O)N[C@H](c1cn2ncc([C@H](NC(=O)CC(C)C(F)(F)F)C3CC3)cc2n1)C1CCC(F)(F)CC1` (single isomer, unassigned) [Example 122, N—((S)-(7-((R)-Cyclopropyl((S*)-4,4,4-trifluoro-3-methylbutanamido)methyl)imidazo[1,2-b]pyridazin-2-yl)(4,4-difluorocyclohexyl)methyl)-1-isopropyl-1H-pyrazole-5-carboxamide], the IC50 worked out at 0.11 µM in test [1] and 0.22 µM in test [2].

`Cc1nocc1C(=O)N[C@H](c1cn2ncc([C@H](NC(=O)CC(C)C(F)(F)F)C3CC3)cc2n1)C1CCC(F)(F)CC1` (single isomer, unassigned) [Example 123, N—((S)-(7-((R)-Cyclopropyl((R*)-4,4,4-trifluoro-3-methylbutanamido)methyl)imidazo[1,2-b]pyridazin-2-yl)(4,4-difluorocyclohexyl)methyl)-3-methylisoxazole-4-carboxamide]: the IC50 turned out to be 0.055 µM in test [1] and 0.13 µM in test [2].

On to `Cc1nocc1C(=O)N[C@H](c1cn2ncc([C@H](NC(=O)CC(C)C(F)(F)F)C3CC3)cc2n1)C1CCC(F)(F)CC1` (single isomer, unassigned) [Example 124, N—((S)-(7-((R)-Cyclopropyl((S*)-4,4,4-trifluoro-3-methylbutanamido)methyl)imidazo[1,2-b]pyridazin-2-yl)(4,4-difluorocyclohexyl)methyl)-3-methylisoxazole-4-carboxamide], for which the IC50 in test [1] worked out at 0.11 µM; in test [2], 0.69 µM.

For the compound `CC(CC(=O)N[C@@H](c1cnn2cc([C@@H](NC(=O)c3conc3C3CC3)C3CCC(F)(F)CC3)nc2c1)C1CC1)C(F)(F)F` (single isomer, unassigned) [Example 128, 3-Cyclopropyl-N—((S)-(7-((R)-cyclopropyl((R*)-4,4,4-trifluoro-3-methylbutanamido)methyl)imidazo[1,2-b]pyridazin-2-yl)(4,4-difluorocyclohexyl)methyl)isoxazole-4-carboxamide], the IC50 amounted to 0.032 µM in test [1] and 0.096 µM in test [2].

As for `CC(CC(=O)N[C@@H](c1cnn2cc([C@@H](NC(=O)c3conc3C3CC3)C3CCC(F)(F)CC3)nc2c1)C1CC1)C(F)(F)F` (single isomer, unassigned) [Example 129, 3-Cyclopropyl-N—((S)-(7-((R)-cyclopropyl((S*)-4,4,4-trifluoro-3-methylbutanamido)methyl)imidazo[1,2-b]pyridazin-2-yl)(4,4-difluorocyclohexyl)methyl)isoxazole-4-carboxamide], the IC50 was determined as 0.051 µM in test [1] and 0.25 µM in test [2].

Consider `CC(C)n1nccc1C(=O)N[C@H](c1cn2ncc(C(NC(=O)CCC(F)F)C3CC3)cc2n1)C1CCC(F)(F)CC1` (single isomer, unassigned) [Example 135, N-((1S)-(7-((R*)-Cyclopropyl(4,4-difluorobutanamido)methyl)imidazo[1,2-b]pyridazin-2-yl)(4,4-difluorocyclohexyl)methyl)-1-isopropyl-1H-pyrazole-5-carboxamide], for which the concentration for half-maximal inhibition (IC50) worked out at 0.11 µM in test [1] and 0.23 µM in test [2] (Homo sapiens, Keratinocyte).

With `CC(C)n1nccc1C(=O)N[C@H](c1cn2ncc(C(NC(=O)CC(C)(C)O)C3CC3)cc2n1)C1CCC(F)(F)CC1` (single isomer, unassigned) [Example 136, N—((S)-(7-((R*)-Cyclopropyl(3-hydroxy-3-methylbutanamido)methyl)imidazo[1,2-b]pyridazin-2-yl)(4,4-difluorocyclohexyl)methyl)-1-isopropyl-1H-pyrazole-5-carboxamide], the values for the IC50 in test [1] and in test [2] were 0.4 µM and 0.79 µM, respectively.

As to `CC(C)n1nccc1C(=O)N[C@H](c1cn2ncc(C(NC(=O)CC(C)(C)O)C3CC3)cc2n1)C1CCC(F)(F)CC1` (single isomer, unassigned) [Example 137, N—((S)-(7-((S*)-Cyclopropyl(3-hydroxy-3-methylbutanamido)methyl)imidazo[1,2-b]pyridazin-2-yl)(4,4-difluorocyclohexyl)methyl)-1-isopropyl-1H-pyrazole-5-carboxamide], the IC50 is 14 µM in test [1] and > 20 µM in test [2].

With `CC(C)n1nccc1C(=O)N[C@H](c1cn2ncc([C@@H](NC(=O)C[C@H]3CC3(F)F)C3CC3)cc2n1)C1CCC(F)(F)CC1` (single isomer, unassigned) [Example 138], the IC50 in test [1] was determined as 0.78 µM; in test [2] (Homo sapiens, Keratinocyte), 1.3 µM.

In the case of `CC(C)n1nccc1C(=O)N[C@H](c1cn2ncc([C@@H](NC(=O)C[C@@H]3CC3(F)F)C3CC3)cc2n1)C1CCC(F)(F)CC1` (single isomer, unassigned) [Example 139], the IC50 in test [1] was determined as 0.73 µM; in test [2] (Homo sapiens, Keratinocyte) it was 0.69 µM.

With `CC(C)n1nccc1C(=O)N[C@H](c1cn2ncc([C@H](NC(=O)C[C@H]3CC3(F)F)C3CC3)cc2n1)C1CCC(F)(F)CC1` (single isomer, unassigned) [Example 140], the IC50 in test [1] was found to be 0.07 µM; in test [2] (Homo sapiens, Keratinocyte), 0.089 µM.

Regarding `CC(C)n1nccc1C(=O)N[C@H](c1cn2ncc([C@H](NC(=O)C[C@@H]3CC3(F)F)C3CC3)cc2n1)C1CCC(F)(F)CC1` (single isomer, unassigned) [Example 141], the IC50 turned out to be 0.13 µM in test [1] and 0.2 µM in test [2] (Homo sapiens, Keratinocyte).

On to `CC(C)C(NC(=O)CCC(F)(F)F)c1cnn2cc([C@@H](NC(=O)c3ccnn3C(C)C)C3CCC(F)(F)CC3)nc2c1` (single isomer, unassigned) [Example 154, N—((S)-(4,4-Difluorocyclohexyl)(7-((R*)-2-methyl-1-(4,4,4-trifluorobutanamido)propyl)imidazo[1,2-b]pyridazin-2-yl)methyl)-1-isopropyl-1H-pyrazole-5-carboxamide], for which the IC50 in test [1] was 0.43 µM; in test [2] it was 0.64 µM.

As for `CC(C)C(NC(=O)CCC(F)(F)F)c1cnn2cc([C@@H](NC(=O)c3ccnn3C(C)C)C3CCC(F)(F)CC3)nc2c1` (single isomer, unassigned) [Example 155, N—((S)-(4,4-Difluorocyclohexyl)(7-((S*)-2-methyl-1-(4,4,4-trifluorobutanamido)propyl)imidazo[1,2-b]pyridazin-2-yl)methyl)-1-isopropyl-1H-pyrazole-5-carboxamide], the results for the IC50 in test [1] and in test [2] were 0.13 µM and 0.053 µM, respectively.

Take `Cc1nonc1C(=O)N[C@H](c1cn2ncc([C@H](NC(=O)CC(C)C(F)(F)F)C3CC3)cc2n1)C1CCC(F)(F)CC1` (single isomer, unassigned) [Example 243, N—((S)-(7-((R)-Cyclopropyl((R*)-4,4,4-trifluoro-3-methylbutanamido)methyl)imidazo[1,2-b]pyridazin-2-yl)(4,4-difluorocyclohexyl)methyl)-4-methyl-1,2,5-oxadiazole-3-carboxamide]: the IC50 in test [1] was 0.089 µM; in test [2] (Homo sapiens, Keratinocyte) it was 0.27 µM.

For the compound `CC(C)n1nccc1C(=O)N[C@H](c1cn2ncc([C@H](NC(=O)C[C@H]3C[C@@H](F)C3)C3CC3)cc2n1)C1CCC(F)(F)CC1` (single isomer, unassigned) [Example 257], the IC50 is 0.11 µM in test [1] and 0.12 µM in test [2] (Homo sapiens, Keratinocyte).

`CC(C)n1nccc1C(=O)N[C@H](c1cn2ncc([C@H](NC(=O)C[C@H]3C[C@H](F)C3)C3CC3)cc2n1)C1CCC(F)(F)CC1` (single isomer, unassigned) [Example 258]: the concentration for half-maximal inhibition (IC50) in test [1] worked out at 0.13 µM; in test [2] (Homo sapiens, Keratinocyte), 0.046 µM.

On to `Cc1nonc1C(=O)N[C@H](c1cn2ncc([C@H](NC(=O)CC(C)C(F)F)C3CC3)cc2n1)C1CCC(F)(F)CC1` (single isomer, unassigned) [Example 264, N—((S)-(7-((R)-Cyclopropyl((R*)-4,4-difluoro-3-methylbutanamido)methyl)imidazo[1,2-b]pyridazin-2-yl)(4,4-difluorocyclohexyl)methyl)-4-methyl-1,2,5-oxadiazole-3-carboxamide], for which the IC50 in test [1] came out at 0.048 µM; in test [2], 0.35 µM.

Turning to `Cc1nonc1C(=O)N[C@H](c1cn2ncc([C@H](NC(=O)CC(C)C(F)F)C3CC3)cc2n1)C1CCC(F)(F)CC1` (single isomer, unassigned) [Example 265, N—((S)-(7-((R)-Cyclopropyl((S*)-4,4-difluoro-3-methylbutanamido)methyl)imidazo[1,2-b]pyridazin-2-yl)(4,4-difluorocyclohexyl)methyl)-4-methyl-1,2,5-oxadiazole-3-carboxamide], the IC50 in test [1] was 0.21 µM; in test [2] it was 1.1 µM.

In the case of `Cc1nonc1C(=O)N[C@H](c1cn2ncc([C@H](NC(=O)C[C@H]3C[C@H](F)C3)C3CC3)cc2n1)C1CCC(F)(F)CC1` (single isomer, unassigned) [Example 266], the half-inhibitory concentration (IC50) was 0.056 µM in test [1] and 0.29 µM in test [2] (Homo sapiens, Keratinocyte).

`Cc1nonc1C(=O)N[C@H](c1cn2ncc([C@H](NC(=O)C[C@H]3C[C@@H](F)C3)C3CC3)cc2n1)C1CCC(F)(F)CC1` (single isomer, unassigned) [Example 267]: the IC50 worked out at 0.087 µM in test [1] and 0.35 µM in test [2] (Homo sapiens, Keratinocyte).
